The text below walks through data of ChEMBL document CHEMBL1201862, “PubChem BioAssay data set” (2004).

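Protocol summary: plate cells (96-well), add compound at 5 concentrations, incubate 48 h, interpolate endpoints linearly. GI50 is the concentration that inhibits growth by half.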 Calls of active or inactive are those of the source. Cut-off read from the data, not from the text of the source: active = GI50 up to about 1.1 µM and inactive = higher.

Some test systems named below: CAKI-1; CCRF-CEM; COLO 205; HCT-15; HL-60; HT-29; IGROV-1; KM12; M14; MOLT-4; Malme-3M; RXF 393; SF-268; SF-295; SK-MEL-2; SK-MEL-5; SW-620; NCI/ADR-RES; MDA-MB-231.
What all share (experiment): inhibition of tumour cell growth, NCI panel, 48 h

On to `COc1ccccc1NC(=O)C(=O)C1C(=O)Nc2ccccc2[S+]1[O-]` (configuration not stated), for which the GI50 in the assay with CAKI-1 was > 100 µM (inactive); in the assay on CCRF-CEM, > 100 µM (inactive); in the assay on COLO 205, > 100 µM (inactive); in the assay with HCT-15 it was greater than 100 µM; in the assay on HL-60, > 100 µM (inactive); in the assay on HT-29, > 100 µM (inactive). For the same molecule, the GI50 in the assay on IGROV-1, in the assay on KM12, with M14, in the assay on MOLT-4, with Malme-3M and with RXF 393 was > 100 µM (inactive) each time. In addition, the GI50 with SF-268, in the assay on SF-295, with SK-MEL-2, with SK-MEL-5 and in the assay on SW-620 was > 100 µM (inactive) throughout.

As to `O=c1/c(=C/c2ccco2)sc2nc3ccccc3n12`, the GI50 is > 10 µM (inactive) with CAKI-1; > 10 µM (inactive) in the assay with CCRF-CEM; > 100 µM (inactive) in the assay on COLO 205; greater than 10 µM in the assay with HCT-15; > 10 µM (inactive) in the assay on HL-60; > 10 µM (inactive) in the assay on HT-29. Besides, the GI50 in the assay on IGROV-1 is > 10 µM (inactive); with KM12 it was > 100 µM (inactive); in the assay with M14, > 10 µM (inactive); with MOLT-4, > 10 µM (inactive); in the assay on Malme-3M it was > 10 µM (inactive); with RXF 393, 63.5 µM (inactive). Moreover, the GI50 in the assay with SF-268, in the assay on SF-295, with SK-MEL-2, in the assay on SK-MEL-5 and in the assay with SW-620 was > 10 µM (inactive) each time.

For the molecule `N#CC1CCCCC1NC1(C#N)CCCCC1` (configuration not stated), the GI50 in the assay with CAKI-1 was > 100 µM (inactive); in the assay on CCRF-CEM, > 100 µM (inactive); with COLO 205, > 100 µM (inactive); in the assay with HCT-15, greater than 100 µM; in the assay with HL-60 it was > 100 µM (inactive); in the assay on HT-29, > 100 µM (inactive). The GI50 with IGROV-1, in the assay on KM12, in the assay on M14, in the assay on MOLT-4, in the assay on Malme-3M and with RXF 393 was > 100 µM (inactive) each time. Moreover, the GI50 with SF-268, in the assay with SF-295, with SK-MEL-2, in the assay on SK-MEL-5 and with SW-620 was > 100 µM (inactive) each time.

For the molecule `COC(=O)C(C(=O)C(=O)Nc1ccccc1C)c1nc2ccc([N+](=O)[O-])cc2nc1O` (configuration not stated), the GI50 was > 100 µM (inactive) in the assay with CAKI-1; > 100 µM (inactive) in the assay with CCRF-CEM; > 100 µM (inactive) in the assay with COLO 205; greater than 100 µM in the assay on HCT-15; > 100 µM (inactive) with HL-60; > 100 µM (inactive) in the assay on HT-29. The GI50 with IGROV-1, with KM12, in the assay with M14, in the assay on MOLT-4, with Malme-3M and in the assay with RXF 393 was > 100 µM (inactive) in each case. Further, the GI50 with SF-268, in the assay on SF-295, in the assay on SK-MEL-2, in the assay on SK-MEL-5 and with SW-620 was > 100 µM (inactive) each time.

Take `COC(=O)CC[C@@H](NC(=O)C(C)NC(=O)COC1C(O)C(COC(=O)CCCCCCCCCCNC(=O)c2ccc([N+](=O)[O-])c3[nH]c4cc(Br)ccc4c(=O)c23)OC(OCc2ccccc2)C1NC(C)=O)C(N)=O` (some centres not stated): the GI50 in the assay with CAKI-1 was > 100 µM (inactive); in the assay with CCRF-CEM it was > 100 µM (inactive); in the assay on COLO 205 it was 96.6 µM (inactive); with HCT-15 it was greater than 100 µM; in the assay with HL-60 it was 23 µM (inactive); in the assay with HT-29, > 100 µM (inactive). Also, the GI50 was 19.5 µM (inactive) in the assay with IGROV-1; > 100 µM (inactive) in the assay with KM12; 61.4 µM (inactive) in the assay with M14; 70.3 µM (inactive) in the assay on MOLT-4; > 100 µM (inactive) with Malme-3M; 56.6 µM (inactive) in the assay with RXF 393. Further, the GI50 with SF-268 is 57.4 µM (inactive); with SF-295 it was > 100 µM (inactive); with SK-MEL-2, 95.1 µM (inactive); in the assay on SK-MEL-5, 68.7 µM (inactive); with SW-620, > 100 µM (inactive).

For the molecule `COC[C@H](Cc1ccccc1)/N=C/c1ccccc1`, the GI50 in the assay on CAKI-1 is > 100 µM (inactive); in the assay with CCRF-CEM it was > 100 µM (inactive); with COLO 205 it was > 100 µM (inactive); in the assay with HCT-15 it was greater than 100 µM; in the assay with HT-29 it was > 100 µM (inactive); with IGROV-1, > 100 µM (inactive). Besides, the GI50 in the assay on KM12, in the assay on M14, in the assay on MOLT-4, with Malme-3M, in the assay with NCI/ADR-RES and in the assay on RXF 393 was > 100 µM (inactive) throughout. In addition, the GI50 in the assay on SF-268, in the assay on SF-295, with SK-MEL-2, in the assay on SK-MEL-5 and in the assay with SW-620 was > 100 µM (inactive) throughout.

As to `Cc1c(/C=N\NC(=S)N(C)CCN(C)C(=S)N/N=C\c2c(C)n(C)n(-c3ccccc3)c2=O)c(=O)n(-c2ccccc2)n1C`, the GI50 in the assay on CAKI-1 was > 100 µM (inactive); in the assay with COLO 205, > 100 µM (inactive); in the assay on HCT-15 it was greater than 100 µM; in the assay with HT-29, > 100 µM (inactive); with KM12, > 100 µM (inactive); in the assay on M14 it was > 100 µM (inactive). For the same molecule, the GI50 with MDA-MB-231 is > 100 µM (inactive); with MOLT-4 it was > 100 µM (inactive); with Malme-3M, 55.7 µM (inactive); in the assay with NCI/ADR-RES, > 100 µM (inactive); in the assay on RXF 393, > 100 µM (inactive); with SF-268 it was > 100 µM (inactive). The GI50 with SF-295, in the assay with SK-MEL-2, with SK-MEL-5 and in the assay with SW-620 was > 100 µM (inactive) each time.

Regarding `C=C1CC2C(=O)N(c3ccccc3)C(=O)C2CC1n1[nH]c(=O)n(Cc2ccccc2)c1=O` (configuration not stated), the GI50 is > 100 µM (inactive) with CAKI-1; > 100 µM (inactive) in the assay with CCRF-CEM; > 100 µM (inactive) in the assay with COLO 205; greater than 100 µM in the assay on HCT-15; > 100 µM (inactive) with HL-60; > 100 µM (inactive) in the assay on HT-29. Further, the GI50 with IGROV-1, in the assay with KM12, in the assay with M14, with MOLT-4, in the assay on Malme-3M and with RXF 393 was > 100 µM (inactive) each time. Besides, the GI50 with SF-268, in the assay with SF-295, in the assay with SK-MEL-2, in the assay with SK-MEL-5 and in the assay on SW-620 was > 100 µM (inactive) throughout.

Consider `CCC1(OC(C)=O)C(=O)OCc2c1cc1n(c2=O)Cc2cc3ccccc3nc2-1` (configuration not stated), for which the GI50 is 1.07 µM (active) in the assay on CAKI-1; 0.163 µM (active) with CCRF-CEM; 35.1 µM (inactive) with COLO 205; 12.3 µM in the assay on HCT-15; 0.421 µM (active) in the assay with HL-60; 3.63 µM (inactive) in the assay on HT-29. Further, the GI50 in the assay on IGROV-1 is 7.52 µM (inactive); in the assay on KM12, 7.6 µM (inactive); in the assay with M14, 0.948 µM (active); in the assay with MOLT-4, 0.264 µM (active); in the assay on Malme-3M, 3.44 µM (inactive); in the assay on RXF 393 it was 2.64 µM (inactive). In addition, the GI50 is 0.528 µM (active) with SF-268; 0.778 µM (active) with SF-295; > 80 µM (inactive) in the assay on SK-MEL-2; 1.23 µM (inactive) with SK-MEL-5; 5.83 µM (inactive) with SW-620.

Turning to `CC(=O)OC[C@@H](COC(=O)/C=C/c1ccc(O)cc1)OC1OC(CO)C(O)C(O)C1O` (some centres not stated), the GI50 with CAKI-1 is > 100 µM (inactive); in the assay on CCRF-CEM, > 100 µM (inactive); in the assay on COLO 205, > 100 µM (inactive); in the assay with HCT-15, greater than 100 µM; in the assay on HL-60, > 100 µM (inactive); in the assay on HT-29, > 100 µM (inactive). In addition, the GI50 in the assay with IGROV-1, in the assay with KM12, with M14, in the assay on MOLT-4, in the assay on Malme-3M and with RXF 393 was > 100 µM (inactive) throughout. Moreover, the GI50 in the assay on SF-268 is > 75.5 µM (inactive); in the assay with SF-295, > 100 µM (inactive); in the assay on SK-MEL-2, > 100 µM (inactive); with SK-MEL-5, > 100 µM (inactive); in the assay with SW-620 it was > 100 µM (inactive).

For `C/C=C1\CN2CCc3c([nH]c4ccccc34)C2CC1C(=O)OC` (configuration not stated), the GI50 in the assay on CAKI-1 is > 322 µM (inactive); in the assay with CCRF-CEM, > 322 µM (inactive); with COLO 205 it was > 322 µM (inactive); in the assay on HCT-15, greater than 322 µM; with HL-60 it was > 32.2 µM (inactive); in the assay on HT-29, > 322 µM (inactive). In addition, the GI50 in the assay on IGROV-1, with KM12, in the assay on MOLT-4, in the assay on Malme-3M, with RXF 393 and in the assay with SF-268 was > 322 µM (inactive) each time. Further, the GI50 in the assay on SF-295, in the assay with SK-MEL-2, in the assay on SK-MEL-5 and with SW-620 was > 322 µM (inactive) in each case.

As for `S=c1c2ccccc2c(=S)n2n1CC=CC2`, the GI50 is > 100 µM (inactive) with CAKI-1; > 100 µM (inactive) in the assay with CCRF-CEM; > 100 µM (inactive) in the assay on COLO 205; greater than 100 µM with HCT-15; > 100 µM (inactive) in the assay on HL-60; > 100 µM (inactive) with HT-29. In addition, the GI50 in the assay on IGROV-1, with KM12, in the assay on M14, in the assay with MOLT-4, in the assay with Malme-3M and in the assay on RXF 393 was > 100 µM (inactive) each time. Also, the GI50 in the assay with SF-268, in the assay on SF-295, with SK-MEL-2, in the assay on SK-MEL-5 and in the assay with SW-620 was > 100 µM (inactive) each time.
